The METLIN SMRT retention time set (Domingo-Almenara et al. 2019)

Assay: gradient 5% acetonitrile 3 min, to 50% in 2 min, to 85% in 15 min, held 3 min, 100 µL/min
Details: column: Zorbax Extend-C18 2.1 x 50 mm; eluents: water / acetonitrile, 0.1% formic acid
Summary of the method: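 Pure standards were analyzed in mixtures of ~100 molecules using HPLC coupled to a quadrupole time-of-flight mass spectrometer, in both positive and negative ionization mode. Separation used a Zorbax Extend-C18 column (2.1 × 50 mm, 1.8 μm) at 100 μL/min, with water and acetonitrile each containing 0.1% formic acid. Dead and dwell volumes were 40 μL and 900 μL, and data were collected over 3 months. Retention time was read from computationally picked adduct peaks, each inspected manually.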

Compound	RP-LC retention time
CCCN(CCc1ccccc1)C1CCc2c(O)cccc2C1 (stereo unspecified)	768 s
O=C(CSc1nnc2c3sc(N4CCCC4)nc3ncn12)Nc1ccc(F)c(Cl)c1	890 s
CCC1CCCCN1C(=O)CC1CCN(S(=O)(=O)c2ccc3c(c2)oc(=O)n3C)CC1 (stereo unspecified)	872 s
Cc1ccc(C)c(Cn2nnc(C(=O)O)c2-c2ccncc2)c1	650 s
Cc1nn2c(S(=O)(=O)NCC3CC3)c(C)nc2s1	690 s
CCOc1cccc(CNc2ncc(C(=O)O)c(C)n2)c1	758 s
O=C(Cn1ncc2c(N3CCN(c4ccccn4)CC3)ncnc21)Nc1cccc(Br)c1	648 s
CC(=O)N1CCC(NC(=O)Nc2cccc(C)c2)C1 (stereo unspecified)	635 s
CCn1nnc2c(SCC(=O)Nc3cccc(C(F)(F)F)c3)ncnc21	866 s
CCc1ccc(N2C(=O)c3c(C(=O)OC)ncn3CC2(C)C(=O)NC2CCCC2)cc1 (stereo unspecified)	615 s
Cn1cccc1-c1cc2n(n1)CCCN2C(=O)CCC(=O)NCc1ccc(F)cc1	717 s
CCCNC(=O)N(C1CCOCC1)C1CCN(C(=O)Nc2cccc(C)c2C)CC1	732 s
O=C(Nc1ccccc1)N1CCC(CCNC(=O)C2(c3ccccc3)CC2)CC1	882 s
CCCc1cc(N2CCN(C(=O)c3ccc4c(c3)OCO4)CC2)nc2nnc(CC)n12	650 s
Cc1noc(-c2nn(C)c3c2CN(C(=O)c2cccc(Br)c2)CC3)n1	783 s
OCc1ncc(-c2ccccc2)s1	762 s
O=C(CCc1nc(-c2ccc(N3CCCC3)cc2)no1)NCCCN1CCOCC1	655 s
Clc1ccc(-c2cc3c(N4CCN(c5ccccn5)CC4)nccn3n2)cc1	727 s
Cc1cccc(N2CCN(C(=O)Cn3c(=O)c4nncn4c4ncccc43)CC2)c1C	791 s
CCn1cc(S(=O)(=O)N2CC(Oc3ccc(-c4nc(C)no4)cc3)C2)cn1	844 s
Cc1cccc(N2CCN(Cc3nc(-c4ccc(N5CCOCC5)nc4)no3)CC2)c1C	945 s
Cc1cccc(/C=C/c2ccccc2)n1	664 s

Compound	RP-LC retention time
Fc1ccc(-c2nc(-c3ccc4nncn4c3)no2)c(Cl)c1	849 s
O=C(NCCc1ccccc1)C(=O)NCC1COc2ccccc2O1 (stereo unspecified)	960 s
CNC(=O)C1CCCN(c2nc3ncn(CC(=O)Nc4ccc(C(F)(F)F)cc4)c(=O)c3s2)C1 (stereo unspecified)	711 s
CCCc1c(C(=O)O)nnn1-c1ccc(C)cc1F	761 s
CCN1CCCn2cc(S(=O)(=O)N3CCOCC3)cc2C1=O	614 s
CSc1ccc(NC(=O)c2cn3c(n2)CCCC3)cc1	624 s
CCn1nc(C)c(CCNC(=O)C2CCCN(C(=O)c3[nH]c(C)cc3C)C2)c1C (stereo unspecified)	630 s
O=C(NCc1ccc2c(c1)OCO2)c1cn2c(n1)COCC2	616 s
CCOc1ccc(-c2csc(Nc3ccc(C)cn3)n2)cc1	949 s
O=c1n(Cc2ccc(F)cc2Cl)nc2ccc(S(=O)(=O)N3CCOCC3)cn12	863 s
CCOCC(=O)N1CCC(Oc2nccnc2N(C)C)C1 (stereo unspecified)	616 s
CC(=O)N1CCc2cc(C(=O)N(C)C)ccc21	595 s
Cc1ccc(-c2noc(-c3nnn4c3COC(c3ccc(Cl)cc3)C4)n2)cc1 (stereo unspecified)	1310 s
CN(C)c1ccc(C(CNC(=O)c2ccc(Br)o2)N2CCOCC2)cc1 (stereo unspecified)	626 s
O=C(c1ccc(F)c(F)c1)N1CCN(c2cc(-c3cccs3)[nH]n2)CC1	758 s
Cc1nc(C2CCCCN2C(=O)c2ccco2)n[nH]1 (stereo unspecified)	593 s
O=C(c1cccs1)N1CCC(c2nncn2-c2ccccc2)CC1	626 s
CCC(C)NC(=O)c1n[nH]c2c1CCCC2 (stereo unspecified)	718 s
NC(=O)c1c(NC(=O)C2CCCN(C(=O)c3cc(F)cc(F)c3)C2)sc2c1CCCC2 (stereo unspecified)	1230 s
Cc1cccc(N(C)C(=O)CCS(=O)(=O)c2ccc3c(c2)CC(C)N3C(=O)C2CC2)c1 (stereo unspecified)	807 s
CS(=O)(=O)N[C@H]1C[C@@H]2C[C@H]1CN2C(=O)c1cccc(Cl)c1	672 s
O=c1c(NCCCc2ccccc2)nc2ccncc2n1Cc1ccccc1	778 s

Further lines, results first:

RP-LC retention time	Compound
656 s	COc1ccc(-c2nc(C)cc(C)c2CNS(=O)(=O)c2cccc(OC)c2)cc1
725 s	CN(Cc1ccccc1)C(=O)Cn1cnc2nc3c(cc2c1=O)CCCC3
1030 s	COc1cc(OC)c(NC(=O)c2cc3c(=O)oc4ccccc4c3n2C)cc1Cl
732 s	CC1CN(Cc2nc3c(c(=O)n(C)c(=O)n3C)n2CCCc2ccccc2)CC(C)O1 (stereo unspecified)
982 s	CC1CCN(C(=O)CN2c3ccc(F)cc3-c3ccccc3S2(=O)=O)CC1
762 s	Cc1oc(C2CCN(S(=O)(=O)c3ccc(C#N)cc3)CC2)nc1C(=O)N(C)C
968 s	CSc1ccc(-c2nc3ncccn3c2Nc2cccc(Cl)c2C)cc1
1130 s	O=S(=O)(Cc1c(F)cccc1Cl)N1CCc2nc(-c3ccc(F)cc3)ncc2C1
681 s	CCc1nc2c(c(=O)n1CC(=O)Nc1cc(C)ccc1OC)CN(Cc1ccccc1)CC2
789 s	CCC(=O)N1CCc2cc(N3CC(C(=O)Nc4cccc(SC)c4)CC3=O)ccc21 (stereo unspecified)
915 s	COc1cc(C2C(=O)N(C3CCCC3)CC(=O)N2Cc2ccco2)ccc1OC(C)C (stereo unspecified)
765 s	COc1cc(-n2nnc(C(=O)NCc3ccco3)c2N)ccc1Cl
706 s	Cc1ccc(Cn2c(=O)c(N3CCN(C(=O)NCc4ccco4)CC3)nc3cccnc32)cc1
751 s	COC(=O)c1ccc(NC(=O)C(=O)NCC2CCN(C(=O)c3ccccc3F)CC2)cc1
776 s	CC(C)N1C(=O)c2cccnc2Sc2cc(NC(=O)c3ccco3)ccc21
1020 s	COc1ccc(NS(=O)(=O)c2c(C)sc(C)c2-c2cc(C(F)(F)F)on2)cc1OC
1040 s	O=C(Nc1ncc(-c2ccccc2)s1)c1ccc(S(=O)(=O)N2CCCCC2)cc1
1100 s	CC(C)n1cc(S(=O)(=O)N2CCN(c3ccccc3F)CC2)c2cccnc21
655 s	O=C(CSc1nccn1-c1ccc(Cl)cc1)NCc1ccco1
941 s	COc1ccccc1-c1noc(C2CCCN2C(=O)Nc2cccc(Cl)c2)n1 (stereo unspecified)
983 s	CC(C)c1ccc(NC(=O)C2CC(=O)N(CCc3c[nH]c4ccc(Cl)cc34)C2)cc1 (stereo unspecified)
1100 s	Cc1ccc(NC(=O)N2CCCC2c2nc(-c3ccccc3)no2)c(Cl)c1 (stereo unspecified)
893 s	CCN(CC)CCN1c2ccccc2Sc2ccc3ccccc3c21
879 s	CS(=O)(=O)Nc1ccc(-c2noc(CN3C(=O)COc4ccc(Cl)cc43)n2)cc1

RP-LC retention time	Compound
1050 s	Cc1cc2oc3c(c(=O)c2cc1C)C(c1ccccc1F)N(c1nccs1)C3=O (stereo unspecified)
1090 s	Cc1ccc(S(=O)(=O)N2CCC(C(=O)N3CCCC3c3nc(-c4ccccc4C)no3)CC2)cc1 (stereo unspecified)
841 s	O=C(Nc1ccccc1OC(F)F)c1ccc(S(=O)(=O)N2CCOCC2)cc1
1090 s	O=C(NCCc1ccco1)C1CCCN(c2nc3ccccc3n(Cc3ccccc3)c2=O)C1 (stereo unspecified)
774 s	Cc1oc(-c2ccc(NC(=O)C3CCCO3)cc2)nc1Cn1cccn1 (stereo unspecified)
755 s	COc1ccc(OC)c(CNC(=O)CCC(=O)N2CCCn3nc(-c4cccn4C)cc32)c1
734 s	CCC(=O)N1CCc2cc(N3CC(C(=O)NCc4cc(F)cc(F)c4)CC3=O)ccc21 (stereo unspecified)
849 s	Cc1cc2c(cc1CNC(=O)Cn1c(C(F)(F)F)nc3ccccc31)OCCCO2
680 s	Cc1oc(C2CCN(C(=O)Nc3ccc(F)cc3F)CC2)nc1C(=O)N1CCOCC1
716 s	Cn1cccc1C(=O)N1CCCC1c1nc(-c2ccccc2)n[nH]1 (stereo unspecified)
850 s	Cc1ccc2c(c1)C(=O)NC1(CCN(C(=O)Cc3ccc(Cl)cc3)CC1)N2C
633 s	CN(CCc1noc(C2CN(Cc3ccc(Cl)c(F)c3)C2)n1)S(C)(=O)=O
890 s	O=C(Cn1nc(N2CCSCC2)c2ccccc2c1=O)Nc1ccccc1
722 s	Cc1cccc(NC(=O)Cc2cn(C)c3ncccc23)c1
976 s	O=C1OC(Cc2ccccc2)C(c2ccccc2)C1=O (stereo unspecified)
734 s	CC(O)(CNC(=O)c1cnc2ccccc2n1)c1ccccc1 (stereo unspecified)
635 s	NC(=O)CSc1nnc(N2CCN(C(=O)c3cc4ccccc4o3)CC2)s1
801 s	COC(=O)c1cc2n(n1)CC(C)(C(=O)NC1CCCC1)N(c1ccccc1C)C2=O (stereo unspecified)
999 s	CCOc1ccc(S(=O)(=O)N2CCCC(C(=O)Nc3ccccc3)C2)cc1 (stereo unspecified)
699 s	CCOc1ccccc1CN1CCO[C@@H](COC)[C@@H]1c1ccccc1
613 s	O=C1CCN(C(=O)Nc2ccccc2)CCOCCN1
966 s	Cc1cc(C)cc(NC(=O)Cc2csc3nc(-c4ccc(C)c(C)c4)cn23)c1
835 s	COc1ccc(-c2noc(C3CCCN3C(=O)c3ccoc3)n2)cc1 (stereo unspecified)
